Several values for one entry are separate records, joined by “and”; a condition that tells them apart may be missing. Equal entries are not always repeated.
Legend:
Rattus norvegicus [1] = test: Tested for the change in systolic blood pressure administered at 50 ug/kg intravenously in anesthetized rats; assay type: functional, Artery
Rattus norvegicus [2] = test: Tested for the change in systolic blood pressure administered at 800 ug/kg intravenously in anesthetized rats; assay type: functional, Artery
Rattus norvegicus [3] = test: Tested for the change in systolic blood pressure administered at 800 ug/kg intravenously in anesthetized rats in presence of phentolamine (2 mg/kg); assay type: functional, Artery
Rattus norvegicus [4] = test: Tested for change in diastolic blood pressure administered at 4.12 uM/kg iv in anesthetized rats; assay type: functional, Artery
Rattus norvegicus [5] = test: Tested for change in systolic blood pressure administered at 4.12 uM/kg iv in anesthetized rats; assay type: functional, Artery
Rattus norvegicus [6] = test: Tested for the change in diastolic blood pressure administered at 1600 ug/kg iv in anesthetized rats in presence of hexamethonium (5 mg/kg) (p<0.05); assay type: functional, Artery
Rattus norvegicus [7] = test: Tested for the change in diastolic blood pressure administered at 1600 ug/kg iv in anesthetized rats in presence of propranolol (3 mg/kg); assay type: functional, Artery
Rattus norvegicus [8] = test: Tested for the change in diastolic blood pressure administered at 800 ug/kg iv in anesthetized rats in presence of propranolol (3 mg/kg); assay type: functional, Artery
Rattus norvegicus [9] = test: Tested for the change in systolic blood pressure administered at 100 ug/kg intravenously in anesthetized rats in presence of spinalization under vagotomy; assay type: functional, Artery
Rattus norvegicus [10] = test: Tested for the change in systolic blood pressure administered at 100 ug/kg iv in anesthetized rats in presence of spinalization under vagotomy; assay type: functional, Artery
Rattus norvegicus [11] = test: Tested for the change in systolic blood pressure administered at 200 ug/kg intravenously in anesthetized rats; assay type: functional, Artery
Rattus norvegicus [12] = test: Tested for the change in systolic blood pressure administered at 3200 ug/kg intravenously in anesthetized rats in presence of propranolol (3 mg/kg); assay type: functional, Artery
Rattus norvegicus [13] = test: Tested for the change in systolic blood pressure administered at 400 ug/kg intravenously in anesthetized rats; assay type: functional, Artery
Rattus norvegicus [14] = test: Tested for the change in diastolic blood pressure administered at 3200 ug/kg iv in anesthetized rats in presence of hexamethonium (5 mg/kg) (p<0.05); assay type: functional, Artery
Rattus norvegicus [15] = test: Tested for the change in diastolic blood pressure administered at 3200 ug/kg iv in anesthetized rats in presence of phentolamine (2 mg/kg); assay type: functional, Artery
Rattus norvegicus [16] = test: Tested for the change in diastolic blood pressure administered at 3200 ug/kg iv in anesthetized rats in presence of propranolol (3 mg/kg); assay type: functional, Artery
Rattus norvegicus [17] = test: Tested for the change in diastolic blood pressure administered at 50 ug/kg intravenously in anesthetized rats; assay type: functional, Artery
Rattus norvegicus [18] = test: Tested for the change in diastolic blood pressure administered at 6400 ug/kg intravenously in anesthetized rats; assay type: functional, Artery
Rattus norvegicus [19] = test: Tested for the change in diastolic blood pressure administered at 6400 ug/kg iv in anesthetized rats in presence of hexamethonium (5 mg/kg) (p<0.05); assay type: functional, Artery
Rattus norvegicus [20] = test: Change in respiratory frequency administered at 100 ug/kg iv in anesthetized rats; assay type: functional
Rattus norvegicus [21] = test: Change in respiratory frequency administered at 200 ug/kg iv in anesthetized rats; assay type: functional
Rattus norvegicus [22] = test: Change in respiratory frequency administered at 3200 ug/kg iv in anesthetized rats; assay type: functional
Rattus norvegicus [23] = test: Change in respiratory frequency administered at 6400 ug/kg iv in anesthetized rats; assay type: functional
Rattus norvegicus [24] = test: Change in respiratory frequency administered at 800 ug/kg iv in anesthetized rats; assay type: functional
Rattus norvegicus [25] = test: Change in heart rate administered at 3200 ug/kg iv in anesthetized rats in presence of propranolol (3 mg/kg) (p<0.05); assay type: functional
Rattus norvegicus [26] = test: Change in heart rate administered at 3200 ug/kg iv in anesthetized rats in presence of spinalization under vagotomy (p<0.05); assay type: functional
Rattus norvegicus [27] = test: Change in heart rate administered at 6400 ug/kg iv in anesthetized rats in presence of hexamethonium (5 mg/kg) (p<0.05); assay type: functional
Rattus norvegicus [28] = test: Change in heart rate administered at 6400 ug/kg iv in anesthetized rats in presence of propranolol (3 mg/kg) (p<0.05); assay type: functional
Rattus norvegicus [29] = test: Change in heart rate administered at 800 ug/kg iv in anesthetized rats in presence of hexamethonium (5 mg/kg) (p<0.05); assay type: functional
Rattus norvegicus [30] = test: Change in heart rate administered at 800 ug/kg iv in anesthetized rats in presence of propranolol (3 mg/kg) (p<0.05); assay type: functional
Rattus norvegicus [31] = test: Maximum rate of rise of the left ventricular isovolumetric pressure administered at 3200 ug/kg iv in anesthetized rats in presence of hexamethonium (5 mg/kg) (p<0.05); assay type: functional, Heart left ventricle
Rattus norvegicus [32] = test: Maximum rate of rise of the left ventricular isovolumetric pressure administered at 3200 ug/kg iv in anesthetized rats in presence of phentolamine (2 mg/kg); assay type: functional, Heart left ventricle
Rattus norvegicus [33] = test: Maximum rate of rise of the left ventricular isovolumetric pressure administered at 3200 ug/kg iv in anesthetized rats in presence of […] (3 mg/kg) (p<0.05); assay type: functional, Heart left ventricle
Rattus norvegicus [34] = test: Maximum rate of rise of the left ventricular isovolumetric pressure administered at 3200 ug/kg iv in anesthetized rats in presence of spinalization under vagotomy (p<0.05); assay type: functional, Heart left ventricle
Rattus norvegicus [35] = test: Maximum rate of rise of the left ventricular isovolumetric pressure administered at 800 ug/kg iv in anesthetized rats in presence of hexamethonium (5 mg/kg) (p<0.05); assay type: functional, Heart left ventricle
Rattus norvegicus [36] = test: Maximum rate of rise of the left ventricular isovolumetric pressure (dP/dt) administered at 100 ug/kg iv in anesthetized rats; assay type: functional, Heart left ventricle
Rattus norvegicus [37] = test: Maximum rate of rise of the left ventricular isovolumetric pressure (dP/dt) administered at 400 ug/kg iv in anesthetized rats; assay type: functional, Heart left ventricle
Rattus norvegicus [38] = test: Maximum rate of rise of the left ventricular isovolumetric pressure (dP/dt) administered at 50 ug/kg iv in anesthetized rats; assay type: functional, Heart left ventricle
Rattus norvegicus [39] = test: Maximum rate of rise of the left ventricular isovolumetric pressure (dP/dt) administered at 6400 ug/kg iv in anesthetized rats; assay type: functional, Heart left ventricle
Rattus norvegicus [40] = test: Maximum rate of rise of the left ventricular isovolumetric pressure administered at 1600 ug/kg iv in anesthetized rats in presence of hexamethonium (5 mg/kg) (p<0.05); assay type: functional, Heart left ventricle
Rattus norvegicus [41] = test: Maximum rate of rise of the left ventricular isovolumetric pressure administered at 1600 ug/kg iv in anesthetized rats in presence of […] (3 mg/kg) (p<0.05); assay type: functional, Heart left ventricle
Rattus norvegicus [42] = test: Maximum rate of rise of the left ventricular isovolumetric pressure administered at 200 ug/kg iv in anesthetized rats in presence of spinalization under vagotomy; assay type: functional, Heart left ventricle

COc1ccc(/C=C/C(=O)NCCCC/N=C(\N)NCC=C(C)C)cc1OC
Blood pressure (Rattus norvegicus [1]): -4 mmHg and -5% | Blood pressure (Rattus norvegicus [2]): -17 mmHg and -21% | Blood pressure (Rattus norvegicus [3]): -22 mmHg | Blood pressure (Rattus norvegicus [4]): -18 mmHg | Blood pressure (Rattus norvegicus [5]): -21 mmHg | Blood pressure (Rattus norvegicus [6]): -9 mmHg | Blood pressure (Rattus norvegicus [7]): -20 mmHg | Blood pressure (Rattus norvegicus [8]): -13 mmHg | Blood pressure (Rattus norvegicus [9]): 0 mmHg | Blood pressure (Rattus norvegicus [10]): 0 mmHg | Blood pressure (Rattus norvegicus [11]): -11 mmHg and -14% | Blood pressure (Rattus norvegicus [12]): -30 mmHg | Blood pressure (Rattus norvegicus [13]): -15 mmHg and -18% | Blood pressure (Rattus norvegicus [14]): -17 mmHg | Blood pressure (Rattus norvegicus [15]): -39 mmHg | Blood pressure (Rattus norvegicus [16]): -26 mmHg | Blood pressure (Rattus norvegicus [17]): -5 mmHg and -8% | Blood pressure (Rattus norvegicus [18]): -31 mmHg and -48% | Blood pressure (Rattus norvegicus [19]): -20 mmHg | Frequency (Rattus norvegicus [20]): 9 beats min-1 and 8% | Frequency (Rattus norvegicus [21]): 12 beats min-1 and 12% | Frequency (Rattus norvegicus [22]): -41 beats min-1 and -39% | Frequency (Rattus norvegicus [23]): -87 beats min-1 and -80% | Frequency (Rattus norvegicus [24]): 25 beats min-1 and 24% | Heart rate (Rattus norvegicus [25]): 9 beats min-1 | Heart rate (Rattus norvegicus [26]): 3 beats min-1 | Heart rate (Rattus norvegicus [27]): 12 beats min-1 | Heart rate (Rattus norvegicus [28]): 11 beats min-1 | Heart rate (Rattus norvegicus [29]): 5 beats min-1 | Heart rate (Rattus norvegicus [30]): 6 beats min-1 | dp/dt (Rattus norvegicus [31]): 1124 mmHg s-1 | dp/dt (Rattus norvegicus [32]): 2627 mmHg s-1 | dp/dt (Rattus norvegicus [33]): 760 mmHg s-1 | dp/dt (Rattus norvegicus [34]): 680 mmHg s-1 | dp/dt (Rattus norvegicus [35]): 890 mmHg s-1 | BP (Rattus norvegicus [36]): 3% | dp/dt (Rattus norvegicus [36]): 141 mmHg s-1 | BP (Rattus norvegicus [37]): 33% | dp/dt (Rattus norvegicus [37]): 1712 mmHg s-1 | BP (Rattus norvegicus [38]): 1% | dp/dt (Rattus norvegicus [38]): 52 mmHg s-1 | BP (Rattus norvegicus [39]): 58% | dp/dt (Rattus norvegicus [39]): 3074 mmHg s-1 | dp/dt (Rattus norvegicus [40]): 1008 mmHg s-1 | dp/dt (Rattus norvegicus [41]): 520 mmHg s-1 | dp/dt (Rattus norvegicus [42]): 0 mmHg s-1
